BindingDB's records for doi:10.1021/jm991119p (The Institute of Cancer Research, 2000)

Target: reduced folate carrier 1 (Mus musculus)
Assay: Affinity towards RFC (Reduced folate carrier) measured by the inhibition of [3H]MTX uptake

Ki: 200 µM
SMILES: C#CCN(Cc1cc2c(=O)[nH]c(C)nc2cc1C)c1ccc(C(=O)N[C@@H](CCC(=O)N[C@H](CCC(=O)O)C(=O)O)C(=O)O)cc1
